# Laboratory results reported in a melting point compilation (Tetko et al.; mined from patent text by program, amines drawn as free bases though some values may be those of a salt).
row,Structure (SMILES),melting point [°C]
1,Cc1cccc(C(=O)Nc2nc(=O)n(C3OC(C)C(O)C3O)cc2F)c1 (stereo not drawn),146 to 148
2,O=C1Cn2c(cc3ccccc32)C(=O)N1CCCCN1CCN(c2ncccn2)CC1,237 to 239
3,CC1CC2=CC(=O)CCC2C2C(F)CC3(C)C(=O)CCC3C12 (stereo not drawn),84.8
4,CCC(=O)n1nc(-c2cc(C(C)(C)C)c(O)c(C(C)(C)C)c2)c2cccnc21,184 to 185
5,N#Cc1ncc(NCCO)nc1N1CCC(c2ccc(F)cc2)CC1,155 to 158
6,CCCc1nc2c(N)nc3cccnc3c2n1CC1(O)CCC1,226 to 227
7,COC(=O)c1ccc(N2CCCC2=O)c([N+](=O)[O-])c1,159 to 161
8,CN(C)c1nc2cc(C(F)(F)F)ccc2n1Cc1ccc(Cl)cc1,103 to 107
9,CCC(C)C(NC(=O)C(C)CS)C(=O)O (stereo not drawn),164
10,CO/C(=C\C=C\c1cc2cc(C(F)(F)F)ccc2[nH]1)C(=O)O,191 to 193
11,CC(C)=NNc1ccc(OCC(C)NCC(O)COc2ccccc2C#N)nn1 (stereo not drawn),121 to 123
12,CCN(CC)C(=O)c1nc(C)n2c1CN=C(c1ccccc1F)c1cc(Cl)ccc1-2,182 to 188
13,COc1ccc(C=CC(=O)NCCc2ccc(-c3ccccc3)c(S(N)(=O)=O)c2)c(OC)c1,85
14,COC(=O)C[C@]1(C)[C@@H](O)CC[C@H]1C1CCc2cc(OC)ccc2C1 (stereo partly drawn),86 to 87
15,Cc1cccc(NC(=O)CN2C(=O)C3(COc4cc5c(cc43)CCO5)c3ccccc32)c1C (stereo not drawn),251 to 253
16,COc1cc2cc3c(Cl)c(C#N)cnc3nc2cc1OC,> 300
17,Cc1nc2cc3c(cc2[nH]1)C(C)(C)CC(=O)N3,290 to 294
18,CCOC(=O)c1cc(CC(C)(C)NC(=O)OC(C)(C)C)n(CCOC)n1,92 to 93
19,CCNCc1ccc(O)c(C(CCN(C(C)C)C(C)C)c2ccccc2)c1 (stereo not drawn),140 to 142
20,COc1ccc(-c2nc(-c3ccc(Cl)cc3)ncc2C(=O)N2CCOCC2)cc1OC,168
21,COC12CC(C)(C)C(O1)C(=O)CC2C (stereo not drawn),38 to 39
22,CCOC(=O)c1cn2c3c(c(F)c(F)cc3c1=O)OCC2COC (stereo not drawn),238
23,Cc1c(C)c2c(c(C)c1OC(=O)c1ccccc1)SC(CCCOC(=O)c1ccccc1)O2 (stereo not drawn),114 to 116
24,NS(=O)(=O)c1ccccc1Cn1cncn1,128 to 131
25,C=CCOn1cc(C(=O)NCc2ccc(Cl)cc2)c(=O)c2ccccc21,113 to 114
26,Nc1cccc2ccc(OCC3CC3)cc12,49 to 50

row,Structure (SMILES),melting point [°C]
1,CNc1cc(NS(=O)(=O)c2ccc(F)cc2)nc(NC)n1,261 to 263
2,Cc1nnsc1NC(=O)Nc1ccc(-n2nc(C(F)(F)F)cc2C2CC2)cc1,124 to 128
3,O=C(O)CCCC/C=C(/c1cccnc1)c1cccs1,84 to 85
4,O=C(NC1N=C(c2ccccc2F)c2ccccc2NC1=O)c1ccccc1 (racemic),243 to 244
5,O=C1Cc2cc(C(=O)N3CCN(C(=O)c4ccccc4)CC3)ccc2N1,268 to 270
6,N#Cc1ccc(Nn2cnnc2)cc1-c1ccccc1,181 to 182
7,COc1ccc(CNC(=O)c2cc3c(=O)n(CCOc4ccc(F)cc4)c(=O)n(C)c3s2)cc1,170 to 171
8,CCCCCCCCCCCCCCOc1ccc(C(=O)O)cc1C(C)(C)C,121 to 123
9,CSc1c(CC(=O)O)n(Cc2ccc(Cl)cc2)c2ccc(CF)cc12,136 to 140
10,CC(C)C1(C)NC(c2nc(-c3ccsc3)ccc2C(=O)O)=NC1=O (stereo not drawn),253 to 257
11,C[C@@H](SCCCO)[C@](O)(Cn1cncn1)c1ccc(F)cc1F (relative stereo),119 to 120
12,CN1CCC(C(O)(c2ccc(F)cc2)c2ccc3ccccc3c2)CC1 (stereo not drawn),164 to 169
13,C#CC[C@]12C=CC(=O)C=C1CC[C@H]1[C@@H]3CCC(=O)[C@@]3(C)CC[C@@H]12,200 to 201
14,O=C1CCCc2ncccc2N1,156 to 159
15,COC(=O)C(CCSC)NC(=O)c1ccc(NC(=O)C2CC(O)CN2C(=O)OC(C)(C)C)cc1-c1ccccc1 (stereo not drawn),121 to 123
16,COc1ccc2c(c1)C(=O)CC1C2C(O)CC2(C)C(O)CCC12 (stereo not drawn),113 to 114
17,CC(C)C(=O)NCCC1C=CC=CC1=O (stereo not drawn),88 to 93
18,CCCCCCCCCCCCCC(C)Oc1c(I)cc(I)cc1I (stereo not drawn),56 to 58
19,O=C(CCc1ccccc1)Cn1ccnc1,172 to 173
20,O[C@H](CCc1cccnc1)COc1ccc(-c2nnco2)cc1,130 to 133
21,O=C(O)CNC(=O)CCCc1ccccc1,99 to 101
22,Cc1c(C)c2c(c(C)c1N)CC(C)(CSCCO)O2 (stereo not drawn),108 to 109
23,Cc1nc(N)c2nc(C)n(CCCCNS(C)(=O)=O)c2c1C,228 to 230
24,COc1nc(C#N)c(C#N)n1C,192 to 194
25,CS(=O)(=O)c1n[nH]c(NCCCCOc2cccc(CN3CCCCC3)c2)n1,79 to 81
26,NS(=O)(=O)c1ccccc1-c1ccccn1,186 to 190

row,Structure (SMILES),melting point [°C]
1,CC(C)n1cc(C(=O)O)c(=O)c2cc(F)c(F)c(F)c21,256 to 260
2,Clc1ccccc1N1CCN=C1C(Cn1ccnc1)c1ccccc1 (stereo not drawn),118 to 122
3,O=C1OCCC1NS(=O)(=O)c1ccc(Cl)cc1 (racemic),113 to 115
4,COC(=O)C1=C(C)NC(CO)=C(C(=O)OC)C1c1cccc([N+](=O)[O-])c1 (stereo not drawn),145 to 146
5,COc1ccc2c(c1)CCN1CCC(Nc3ccc(NC(C)=O)cc3)CC21 (stereo not drawn),219 to 221
6,CC12CCC3C(CCC4=CC(=O)C=C(CO)C43C)C1CCC2=O (stereo not drawn),201 to 202
7,C#CCOC(=O)c1ccc(O)c(O)c1,127 to 129
8,CCOCCn1c(CN2CCN(CCNc3nc4cnccc4[nH]3)CC2)nc2cccnc21,124
9,CCCCCCCCCCCCCCCCCCOc1cc(C(=O)OC)c([N+](=O)[O-])c(C(=O)OC)c1,65 to 68
10,CCSC(NC(C)=O)C(=O)NCc1ccccc1 (stereo not drawn),146 to 148
11,Cc1cnc(N)cc1C(c1cc(F)ccc1F)S(=O)(=O)c1ccc(Cl)cc1 (stereo not drawn),188 to 189
12,Cc1ccc(CN2Cc3cncn3C(c3ccc(C#N)cc3)C2=O)cc1 (stereo not drawn),168 to 170
13,COc1cc(OC)c2cnnc(Cl)c2c1,167
14,Cc1ccc2c(c1)C(C(F)(F)F)(C(F)(F)F)c1cc(C)ccc1O2,136 to 137
15,Oc1cccc(CCc2cc(-c3ccccc3)n(-c3ccccc3)n2)c1,211 to 212
16,CCOC(=O)C(O)=Cc1ccc(Oc2ccccc2)nn1,127 to 128
17,CCN(CC)c1cc(-c2ccccc2)nc2nn(-c3ccccc3)cc12,148 to 149
18,O=C1c2cc(OCc3ccccc3Cl)ccc2CCN1Cc1cccnc1,88.5 to 90
19,COCCCn1c(=O)[nH]c2ncc(-c3ccc(O)cc3)nc21,208 to 210
20,CCOC(=O)c1cc2ccc(Cl)c(NS(=O)(=O)c3cccs3)c2[nH]1,191 to 192
21,C(=C(c1ccccc1)c1ccccc1)C1CCN(CCCCCCCCCCc2cccnc2)CC1,63 to 65
22,C=CCn1c(=O)n(-c2cccc(C)n2)c2ncccc21,111 to 112
23,CC(C)c1c(C=CC2CC(O)CC(O)O2)n(C2CCCCC2)c(=O)c2ccccc12 (mixture of isomers),141 to 142
24,COC(=O)c1cccc(S(=O)(=O)N(C)C)c1CS(=O)(=O)NC(=O)Nc1nc(OC)cc(OC)n1,175 to 180
25,COC1(C#Cc2ncn3c2CN(C)C(=O)c2c(Cl)cccc2-3)CCCC1,174 to 175
26,O=Cc1ccc(CO)cc1,44.5 to 46

row,Structure (SMILES),melting point [°C]
1,CC(CF)(CF)C(O)C(Oc1ccc(Cl)cc1)n1cncn1 (stereo not drawn),97 to 102
2,O=C(NC(Cc1ccc(OCc2ccccc2)cc1)C(=O)O)c1cn2cc(-c3ccc(Cl)cc3)cnc2n1 (stereo not drawn),252 to 253
3,CCOC(=O)CNc1c(C#N)cnn1-c1ccc(C(F)(F)F)cc1Cl,100 to 102
4,CCC(O)(CC)CCN1CCC(c2noc3cc(F)ccc23)CC1,50 to 53
5,CC1(C)OC(=O)C[C@H]2NC(=O)[C@H]21,180 to 182
6,COc1ccc(C(O)CNCCc2ccc(OC)c(OC)c2)cc1 (stereo not drawn),92
7,FC(F)(Cc1c[nH]c2ccc(-n3cnnc3)cc12)CN1CCC(OCc2ccccc2)CC1,170
8,O=C(Oc1cc([N+](=O)[O-])ccc1[N+](=O)[O-])c1cc2ccccc2oc1=O,223 to 225
9,N#COc1ccc(C=CC(=O)c2ccc(OC#N)cc2)cc1,171 to 173
10,COC(=O)C1=C(c2ccccc2)NC(C)=C(C(=O)OC(C)C)C1c1cccc([N+](=O)[O-])c1 (stereo not drawn),184 to 186
11,CCCCCCCCCCOc1cc(OCCCOc2ccc(OCc3ccccc3)cc2)cc(C(=O)O)c1,107 to 109
12,O=S(=O)(c1ccc(S(=O)(=O)C2CCCCC2)nc1)C1CCCCC1,213
13,O=C(O)Cc1nn(Cc2ccc(Br)cc2)c(=O)c2ccccc12,179 to 181
14,CC(C)(C)OC(=O)C(=[N+]=[N-])C(=O)C(C(=O)OC(C)(C)C)[C@H]1NC(=O)[C@@H]1Br (stereo partly drawn),136 to 138
15,CC(C)c1cc(C=C2NC(=S)NC2=O)cc(C(C)C)c1O,225 to 230
16,CC(C(=O)N(C)C)n1ccc(-c2ccc(Cl)cc2)n1 (stereo not drawn),95 to 99
17,NC(=S)C1CCCc2cc3c(nc21)CCC3 (stereo not drawn),118
18,O=C(c1ccccc1)C1CCCc2cccnc21 (stereo not drawn),205 to 207
19,N#CCc1cccc2c(-c3ccc([N+](=O)[O-])cc3)nccc12,219
20,CC(C)(C)Nc1cc(Cl)nc(NC(C)(C)C)n1,128 to 130
21,O[C@@H](CNCCOc1ccc2oc(-c3noc(C(F)(F)F)n3)cc2c1)c1cccc(Cl)c1,108 to 111
22,N=C(N)NC(=O)c1cn(-c2ccc3ccccc3n2)c2ncccc12,242
23,O=[N+]([O-])c1ccc(CSc2ncnc3nc[nH]c23)cc1,239
24,Nc1ccccc1C(=O)Nc1cc2c(cc1F)OCC(=O)N2,251 to 252
25,NC(=NCC(F)(F)F)Nc1ccnc(CSCCN2C(=O)c3ccccc3C2=O)n1,167 to 168
